This is an account of results in patent publication US7674471B2, “Topical composition, topical composition precursor, and methods for manufacturing and using” (Skinvisible Pharmaceuticals, Inc., priority 2001, dated 2010).

This data set is described as follows: solubility in water or solvents. From the text:
In addition, β-cyclodextrin is a relatively small molecule with all of its —OH groups lying on the outside of the molecule. If all of the —OH groups formed complexes with pyrrolidone groups, none would be available to promote water solubility.

As to Dextran-70, the solubility in water entry is listed as “extremely soluble in water”.
Turning to Polyvinylpyrrolidone [PVP], the solubility in water result is “quite water soluble”.
